From patent US12370231B2, “Compositions for inhibiting degradation of hyaluronic acid and methods of use thereof” (Epidarus Therapeutics, LLC, priority 2020, dated 2025)

Experiments:
Type in all cases: biochemical
HYAL1 [1] = target: T1, HYAL1 (Homo sapiens, UniProt Q12794); experiment: Anti-HYAL1 activity of Epidarus Extract Mix after incubation with antimicrobial agents; details: agent at 0.3%; 5 mg/ml Epidarus Extract Mix in 5% 1,3 Propanediol/Water, 48 hours, 37 degrees; relative to control without agent
T1 construct: Human HYAL1 enzyme was isolated from urine following published protocols; from tissue; host or cells: human urine
T1 sequence (Q12794 22-435): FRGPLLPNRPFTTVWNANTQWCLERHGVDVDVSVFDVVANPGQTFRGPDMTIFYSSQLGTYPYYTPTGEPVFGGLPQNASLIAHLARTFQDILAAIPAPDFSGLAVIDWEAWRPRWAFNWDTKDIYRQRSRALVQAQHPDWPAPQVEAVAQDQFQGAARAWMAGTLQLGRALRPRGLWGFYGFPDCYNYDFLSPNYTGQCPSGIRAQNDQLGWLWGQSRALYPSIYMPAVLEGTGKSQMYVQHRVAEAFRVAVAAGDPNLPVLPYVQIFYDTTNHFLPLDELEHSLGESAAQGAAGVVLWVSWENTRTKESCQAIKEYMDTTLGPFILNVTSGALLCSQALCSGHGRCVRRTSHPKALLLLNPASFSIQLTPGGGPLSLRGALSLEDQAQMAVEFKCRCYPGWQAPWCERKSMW
Method: In order to achieve stable, bio-active cosmeceutical formulations, a range of commercially available cosmetic ingredients were assessed for their ability to solubilize the Prunella, Linden or Star Anise extracts or mixed extracts of Prunella, Linden or Star Anise without compromising the HYAL1—inhibitory activity of the botanical extracts. These included, for example: Sepigel 305™, Simugel 600™, Arlasolve™-DMI, Carbopol® Ultrez 21, Hydrolyte®5, Hydrolyte®6 and Zemea® 1,3 Propanediol. In addition, a number of preservative/antimicrobial compounds were similarly assessed for efficacy and effects on biological activity of the added botanical extracts. These included, for example: Phenoxyethanol, Optiphen™ (Phenoxyethanol and Caprylyl Glycol), Methylparaben and Chlorphenesin.
The antimicrobial agents were incubated in a solution of 5% 1,3 Propanediol/Water containing 5 mg/ml of Epidarus Extract Mix (Prunella, Star Anise and Linden) at the indicated concentrations for 48 hours at 37 degrees Centigrade. The anti-HYAL1 activity was measured relative to a control without added antimicrobial agents.

HYAL1 [2] = target: T1, HYAL1; experiment: HYAL1-inhibitory activity of Epidarus extracts after simulated digestion with additives/excipients; details: test ingredient with Epidarus extracts, after simulated gastric and intestinal digestion
Method: In order to develop bio-active formulations for osteoarthritis and bladder […] cystitis therapies in humans and animals, oral bio-availability studies were undertaken. […] Maltodextrin is a partially hydrolyzed vegetable starch and is made from corn, rice, potato starch, wheat, or other vegetable sources. […] The gastric digest was adjusted to pH 6.8 with 1M Sodium Hydroxide and mixed with an equivalent volume of Simulated Intestinal Fluid (SIF) to which was added a commercial preparation of canine pancreatic enzymes, at the following concentrations: Lipase (2,000 to 10,000 Units per ml), Protease (100 to 1,000 Units per ml), Amylase (200 to 2,000 Units per ml) and Bile Salts to 10 mM. Following the simulated complete digestion of the chew/tablet formulations, the levels of active ingredients were assayed and the HYAL1-inhibitory activity was determined. These assays were used to test a range of additives/excipients used in the production of functional nutritional supplements for human and animal use.

HYAL1 [3] = target: T1, HYAL1; experiment: HYAL1 degradation of synovial fluid HA; details: 12 ug Synovial Fluid HA per assay, 2 hours, 37 degrees
Method: Human HYAL1 enzyme was isolated from urine following published protocols (Afify, A. M. et al. Archives of Biochemistry and Biophysics 305, 434-441, 1993). The enzyme activity was calibrated and validated by comparison to commercially available recombinant human HYAL1 (R&D Systems, USA).
Synovial fluid from healthy joints is a solution of 5 to 7 mg/ml of High Molecular weight Hyaluronic Acid. The bovine metacarpopharangeal joints used in these experiments were from 2 year old steers and the synovial fluid was verified by Agarose Gel electrophoresis to be composed of predominantly High MW HA.
Degradation of Synovial Fluid by urinary HYAL1 breaks down the HA to tetra-saccharides in 2 hours at 37 degrees, using a standard HYAL1 assay, testing 12 ug Synovial Fluid HA per assay.
An extract mixture containing Star Anise Pod Extract, Linden Flower Extract and Prunella Flower Spike Extract was also tested to determine the minimum concentration of extract mix required to achieve 100% inhibition of Synovial Fluid HA under the same conditions as used for pentosan polysulfate. This concentration was determined to be 280 ng/ml.

## COC(=O)c1ccc(O)cc1 [Methylparaben]
HYAL1 [1]
  Anti-HYAL1 Activity: 45%

## CCCCCCCCCCCCCCCCCC(=O)O [Stearic Acid]
HYAL1 [2]
  % Inhibition of anti-HYAL1 activity: 0%

## pentosan polysulfate
HYAL1 [3]
  concentration causing 100% inhibition of HYAL1: 156 ng/mL
